{"source": "patent US5948780A", "about": "“Method for treating and preventing heart failure and ventricular dilatation” (priority 1997, dated 1999)", "key": {"[1]": {"test_system": "MI-rat (coronary artery ligation) heart failure model", "experiment": "ischemic model of heart failure (MI-rat), Compound A dose-response", "type": "in vivo", "design": "LVV at LVEDP: unit not given here", "settings": "for LVEDP / LVV at LVEDP / dp/dt MAX: 6 weeks"}, "[2]": {"test_system": "cardiac myocytes", "experiment": "cardiac myocyte length after pacing, first study", "type": "in vivo, pig", "method": "A study was performed in four pigs in which atrial pacemakers were implanted. Heart failure was induced by chronic rapid pacing (i.e., increasing heart rate to 240 beats per minute). Echocardiographic assessment of cardiac function, chamber dimensions, and structure was performed prior to the initiation of pacing, and following 1 and 3 weeks of rapid pacing. Previous studies have shown that 1 week of rapid atrial pacing represents an early timepoint in the development of heart failure in which cardiac dilation is evident, but there is no significant effect on left ventricular (LV) systolic function. […]\nMMP-Inhibitor efficacy in treating heart failure was defined as stopping cardiac dilation, preserving cardiac function, and reducing cardiac myocyte lengthening. Cardiac dilation was assessed by measuring changes in the end-diastolic dimension between the left ventricular free wall and left ventricular septum. Cardiac function was also measured using m-mode echocardiography by calculating the percent fraction shortening, or in other words, how well the left ventricle of the heart pumped blood into the circulation. Cellular remodelling was measured by isolating cardiac myocytes using a standard collagenase digestion procedure and measuring cell length using digital photomicroscopy. […]"}, "[3]": {"test_system": "catalytic domain of stromelysin", "experiment": "plasma MMP inhibitory activity (thiopeptolide hydrolysis), stromelysin", "type": "biochemical", "settings": "plasma after 10 mg/kg oral administration", "method": "The MMP inhibitor chosen for these studies was Compound A as above. A single oral dose of 10 mg/kg of Compound A was administered in one pig, and a second pig was simultaneously administered a single 10 mg/kg dose of the MMP inhibitor intravenously. Plasma samples were serially collected from the chronically placed arterial access ports. Plasma levels of the MMP inhibitor were determined by the degree of hydrolysis of the MMP substrate thiopeptolide Ac-Pro-Leu-Gly-thioester-Leu-Leu-Gly=OEt. […] A pharmacokinetic profile was constructed using these initial data, and it was predicted that an oral delivery of 20 mg/kg/day of Compound A would provide significant MMP plasma inhibitory activity at trough levels. Accordingly, the 3 pigs underwent 20 mg/kg QD-AM of treatment with Compound A for 5 days. In order to confirm adequate MMP inhibitory activity, plasma was collected prior to the AM dose with each day of treatment. […] Thus, a practical dosing regiment of Compound A was established which provided stable plasma MMP inhibitory activity in the animal model to be used in the present study."}, "[4]": {"experiment": "in vivo", "design": "species or system Yorkshire pigs", "settings": "pig, po, 10 mg/kg", "method": "In a similar study, three Yorkshire pigs (22-25 kg, male, Hambone Farms, S.C.) were chronically instrumented in order to measure arterial blood pressure in the conscious state. The pigs were anesthetized with isoflurane (3%/1.5 L/min) and a mixture of nitrous oxide and oxygen (50:50), intubated with a cuffed endotracheal tube and ventilated at a flow rate of 22 mL/kg/minute, and a respiratory rate of 15/minute. A left thoracotomy was performed, and the thoracic aorta at the location of the hemi-azygous crossover exposed. A catheter connected to a vascular process port (Model GPV, 9F, Access Technologies, Skokie, Ill.) was placed in the aorta and sutured in place. The access port was buried in a subcutaneous pocket over the thoracolumbar fascia. Following a recovery period of 7 to 10 days, the animal was returned to the laboratory for baseline studies. […] The vascular access port was entered using a 12-gauge Huber needle (Access Technologies, Skokie, Ill.) and basal, resting arterial pressure and heart rate were recorded. […]\nThe MMP inhibitor chosen for these studies was Compound A as above. […] Plasma levels of the MMP inhibitor were determined by the degree of hydrolysis of the MMP substrate thiopeptolide Ac-Pro-Leu-Gly-thioester-Leu-Leu-Gly=OEt. […]"}, "[5]": {"test_system": "isolated LV myocytes", "experiment": "isolated myocyte contractile function with pacing induced congestive heart failure (Table IV)", "settings": "Rapid Pacing + MMPi, 20 mg/kg QD", "experimental": "Following completion of the 21-day protocol, a final set of LV function measurements were performed and plasma collected. Following steady-state LV function measurements, 35 cc of blood was drawn from the arterial access port into chilled tubes containing EDTA (1.5 mg/mL). The blood samples were immediately centrifuged (2000 g, 10 min, 4° C.), the plasma decanted into separate tubes, frozen in a dry ice/methanol bath, and stored at -80° C. until the time of assay. The animals were then anesthetized as described in the preceding section, a sternotomy performed, and the heart quickly extirpated and placed in a phosphate buffered ice slush. The great vessels, atria, and right ventricle were carefully trimmed away, and the LV weighed. The region of the LV free wall incorporating the circumflex artery (5×5 cm) was excised and prepared for myocyte isolation. The region of the left ventricular free wall comprising the left anterior descending artery (3×5 cm) was cannulated and prepared for perfusion fixation.\nMyocytes were isolated from the LV free wall as follows. The left circumflex coronary artery was perfused with a collagenase solution (0.5 mg/mL, Worthington, type II; 146 U/mg) for 35 minutes. The tissue was then minced into 2 mm sections and gently agitated. After 15 minutes, the supernatant was removed, filtered, and the cells allowed to settle. The myocyte pellet (5×10^4 cells/mL) was then resuspended in standard cell culture media (M199, Gibco Laboratories, Grand Island, N.Y.). […] Viable myocytes were defined as those cells which retained a rod shape, were calcium tolerant, responded to electrical stimulation, and excluded trypan blue. Isolated myocyte function was examined using a thermostatically controlled chamber (37° C.) containing a volume of 2.5 mL and two stimulating platinum electrodes to image the isolated myocytes on an inverted microscope (Axiovert IM35, Zeiss Inc., Germany). A 20× long working distance Hoffmann Modulation Contrast objective (Modulation Optics Inc., Greenvale, N.Y.) was used to image the myocytes. Myocyte contractions were elicited by field stimulating the tissue chamber at 1 Hz (S11, Grass Instruments, Quincy, Mass.) using current pulses of 5 msec duration and voltages 10% above contraction threshold. Myocyte motion signals were captured and input through an edge detector system (Crescent Electronics, Sandy, Utah). The distance between the left and right myocyte edges was converted into a voltage signal, digitized, and input to a computer (80386; ZBV2526, Zenith Data Systems, St. Joseph, Mich.) for analysis. Parameters computed from the digitized contraction profiles include percent shortening, velocity of shortening, velocity of relengthening, time to peak contraction, and duration of contraction.\nIndices of LV and myocyte function were compared between the three treatment groups using multi-way analysis of variance (ANOVA). For comparisons of LV function with each week of pacing, an ANOVA for repeated measures was used. […] For comparisons of neurohormonal profiles, the Student-Neuman-Kuells test was employed. The categorical scores obtained from the histomorphometric studies were compared between groups using the Chi-Square analysis. All statistical procedures were performed using the BMDP statistical software package (BMDP Statistical Software Inc., Los Angeles, Calif.). […] Values of p<0.05 were considered to be statistically significant."}, "[6]": {"experiment": "plasma levels of Compound A in MI-rat", "type": "in vivo", "settings": "po, read-out: Plasma Level", "experimental": "Drugs were administered in chow such that the investigators were blinded to group assignment. A biweekly record of health status, body weight, and food consumption was maintained.\nDosing began at 2 weeks post-MI and continued for 6 weeks.\nThe isoflurane level was then increased to 2%; the Millar was removed from the carotid and replaced with a PE-50 cannula. A 5 mL blood sample was taken using the PE-50 cannula and an ice-cold syringe. Blood was then put into an ice-cold EDTA tube, and centrifuged at 5000 RPM for 10 minutes at 4° C. Plasma was aliquoted, then stored at -80° C. until assays were performed to assess plasma drug levels and other factors."}}, "note": "Where two headings read alike, the source gives them in different places."}
{"molecule": "CC(C)C(NS(=O)(=O)c1ccc(-c2ccc(Br)cc2)cc1)C(=O)O", "note": "(stereo not shown) [Compound A, 2-(4'-bromobiphenyl-4-sulfonylamino)-3-methylbutyric acid]", "values": [{"measurement": "LVEDP", "setting": "[1]; 0.005 mg/kg/day in chow", "result": "20 ± 4", "unit": "mm Hg"}, {"measurement": "LVV at LVEDP", "setting": "[1]; 0.005 mg/kg/day in chow", "result": "650 ± 96"}, {"measurement": "dp/dt MAX", "setting": "[1]; 0.005 mg/kg/day in chow", "result": "5900 ± 474", "unit": "mm Hg/sec"}, {"measurement": "LVEDP", "setting": "[1]; 0.05 mg/kg/day in chow", "result": "16 ± 3", "unit": "mm Hg"}, {"measurement": "LVV at LVEDP", "setting": "[1]; 0.05 mg/kg/day in chow", "result": "622 ± 72"}, {"measurement": "dp/dt MAX", "setting": "[1]; 0.05 mg/kg/day in chow", "result": "6553 ± 331", "unit": "mm Hg/sec"}, {"measurement": "LVEDP", "setting": "[1]; 0.5 mg/kg/day in chow", "result": "20 ± 3", "unit": "mm Hg"}, {"measurement": "LVV at LVEDP", "setting": "[1]; 0.5 mg/kg/day in chow", "result": "751 ± 65"}, {"measurement": "dp/dt MAX", "setting": "[1]; 0.5 mg/kg/day in chow", "result": "5997 ± 351", "unit": "mm Hg/sec"}, {"measurement": "LVEDP", "setting": "[1]; 5 mg/kg/day in chow", "result": "16 ± 3", "unit": "mm Hg"}, {"measurement": "LVV at LVEDP", "setting": "[1]; 5 mg/kg/day in chow", "result": "647 ± 66"}, {"measurement": "dp/dt MAX", "setting": "[1]; 5 mg/kg/day in chow", "result": 6357, "unit": "mm Hg/sec"}, {"measurement": "LV function as measured by dP/dt MAX", "setting": "[1]; 3 highest doses", "result": "significantly improved LV function"}, {"measurement": "LV dilation", "setting": "[1]; every dose (0.005-5 mg/kg/day in chow)", "result": "significantly reduced LV dilation at every dose"}, {"measurement": "Cardiac Myocyte Length", "setting": "[2]; 20 mg/kg/day oral, paced 21 days", "result": 170, "unit": "μms"}, {"measurement": "increase in cardiac myocyte cell length", "setting": "[2]; 3 weeks of pacing", "result": 19, "unit": "%"}, {"measurement": "reduction in activity against the catalytic domain of stromelysin", "setting": "[3]", "result": "~50", "unit": "%"}, {"measurement": "bioavailability at 4 h", "setting": "[4]", "result": "~100", "unit": "%"}, {"measurement": "Percent Shortening", "setting": "[5]; 7 mM calcium", "result": "5.6 ± 0.5", "unit": "%"}, {"measurement": "Relengthening Velocity", "setting": "[5]; 7 mM calcium", "result": "78 ± 5", "unit": "μm/s"}, {"measurement": "Resting Length", "setting": "[5]; 7 mM calcium", "result": "156 ± 5", "unit": "μm"}, {"measurement": "Shortening Velocity", "setting": "[5]; 7 mM calcium", "result": "84 ± 7", "unit": "μm/s"}, {"measurement": "Time to 50% Relaxation", "setting": "[5]; 7 mM calcium", "result": "102 ± 5", "unit": "ms"}, {"measurement": "Time to Peak Contraction", "setting": "[5]; 7 mM calcium", "result": "240 ± 3", "unit": "ms"}, {"measurement": "Total Duration", "setting": "[5]; 7 mM calcium", "result": "476 ± 10", "unit": "ms"}, {"measurement": "Percent Shortening", "setting": "[5]; […] nM isoproterenol", "result": "5.1 ± 0.5", "unit": "%"}, {"measurement": "Relengthening Velocity", "setting": "[5]; […] nM isoproterenol", "result": "80 ± 11", "unit": "μm/s"}, {"measurement": "Resting Length", "setting": "[5]; […] nM isoproterenol", "result": "161 ± 3", "unit": "μm"}, {"measurement": "Shortening Velocity", "setting": "[5]; […] nM isoproterenol", "result": "108 ± 11", "unit": "μm/s"}, {"measurement": "Time to 50% Relaxation", "setting": "[5]; […] nM isoproterenol", "result": "104 ± 6", "unit": "ms"}, {"measurement": "Time to Peak Contraction", "setting": "[5]; […] nM isoproterenol", "result": "175 ± 2", "unit": "ms"}, {"measurement": "Total Duration", "setting": "[5]; […] nM isoproterenol", "result": "433 ± 12", "unit": "ms"}, {"measurement": "Percent Shortening", "setting": "[5]; baseline", "result": "2.2 ± 0.1", "unit": "%"}, {"measurement": "Relengthening Velocity", "setting": "[5]; baseline", "result": "26 ± 2", "unit": "μm/s"}, {"measurement": "Resting Length", "setting": "[5]; baseline", "result": "169 ± 4", "unit": "μm"}, {"measurement": "Shortening Velocity", "setting": "[5]; baseline", "result": "31 ± 2", "unit": "μm/s"}, {"measurement": "Time to 50% Relaxation", "setting": "[5]; baseline", "result": "131 ± 5", "unit": "ms"}, {"measurement": "Time to Peak Contraction", "setting": "[5]; baseline", "result": "244 ± 7", "unit": "ms"}, {"measurement": "Total Duration", "setting": "[5]; baseline", "result": "498 ± 9", "unit": "ms"}, {"measurement": "concentration at 1008 h", "setting": "[6]; 0.005 mg/kg/day in chow", "result": "2 ± 1", "unit": "µM"}, {"measurement": "concentration at 1008 h", "setting": "[6]; 0.05 mg/kg/day in chow", "result": "16 ± 4", "unit": "µM"}, {"measurement": "concentration at 1008 h", "setting": "[6]; 0.5 mg/kg/day in chow", "result": "55 ± 3", "unit": "µM"}, {"measurement": "concentration at 1008 h", "setting": "[6]; 5 mg/kg/day in chow", "result": "201 ± 7", "unit": "µM"}]}
